Earlier results, collected in EP0851285A1, “Photothermographic recording material coatable from an aqueous medium” (priority 1996, dated 1998).

Conditions: salts B

SMILES | Solubility in water at 20°C (20°C) | Solubility in water (at 15°C (cell overrides title's 20°C))
O=P(=O)[O-].[Ag+] [silver metaphosphate] | 0.32 g/100mL water | 
[Ag+].[Ag+].[O]=[W](=[O])([O-])[O-] [silver tungstate] |  | 0.05 (at 15°C) g/100mL water
